Results: US20030040015A1, “Methods and reagents for identifying compounds and mutations that modulate dopamine beta-hydroxylase activity” (priority 2001, published 2003)

Columns and labels:
NE deficient patients [1] = conditions: Biaggioni et al. Lancet 1987; cited from earlier work
DBH-/- mouse embryos = conditions: DBH-/- embryos that usually die in utero; Thomas et al.; cited from earlier work
NE deficient patients [2] = test: Physiological and pharmacological autonomic function tests in NE deficient patients; assay type: in vivo, human; conditions: for block of heart rate increase during strain phase (phase II) of the Valsalva maneuver: human, in vivo
From the text: We collected DNA samples from two patients with NE deficiency, and sequenced all exons and exon/intron junctions of their DBH, Phox2a, and Phox2b genes. Resulting novel variants were then examined in the first degree relatives of the NE deficient patients, healthy European-American controls, and in patients with autonomic disorders other than NE deficiency. […] These patients have been previously reported (Robertson D, et al. N Engl J Med; 314:1494, 1986; Biaggioni I, et al. Neurology, 40:370, 1990). The patients were evaluated on the Vanderbilt General Clinical Research Center while in balance on a 150 mEq sodium and 80 mEq potassium diet one week after discontinuation of medications. Both direct and indirect hemodynamic monitoring was carried out and a variety of physiological and pharmacological tests were employed. Catecholamines and their metabolites were analyzed by radioenzymatic and liquid chromatographic methods as described previously (Robertson D, et al. N Engl J Med, 314:1494, 1986; O'Connor D T, et al. Clin Sci, 86:149, 1994).

CHF patients = conditions: recent clinical studies; cited from earlier work

For `N[C@H](C(=O)O)[C@H](O)c1ccc(O)c(O)c1` [DOPS, dihydroxyphenylserine], the “treatment of autonomic and biochemical deficits of NE deficient patients” value (NE deficient patients [1]) is given as “successfully treated” and the “rescue of homozygous mouse embryos” value (DBH-/- mouse embryos) is given as “rescued homozygous mouse embryos”.

In the case of `NCCc1ccc(O)cc1` [tyramine], the “response to indirectly acting sympathomimetic amine” value (NE deficient patients [2]; 8 mg IV) is reported as “absent response”.

In the case of `CN1[C@@H]2CC[C@H]1C[C@@H](OC(=O)C(CO)c1ccccc1)C2` (some centres unmarked) [atropine], the “block of heart rate increase during strain phase (phase II) of the Valsalva maneuver” value (NE deficient patients [2]) is reported as “blocked”.

With `Clc1cccc(Cl)c1N=C1NCCN1` [clonidine] the “effect on arterial pressure” value (NE deficient patients [2]; 0.3 mg po, decrease expected) was “increase in arterial pressure”.

For `COc1ccccc1OCCNCC(O)COc1cccc2[nH]c3ccccc3c12` (centres unmarked) [carvedilol], the “mortality and risk of death and hospitalization” value (CHF patients) is given as “reduced mortality and the risk of death and hospitalization”.

In the case of `CC(C)NCC(O)COc1cccc2ccccc12` (centres unmarked) [propranolol], the “block of heart rate increase during strain phase (phase II) of the Valsalva maneuver” value (NE deficient patients [2]) is reported as “not”.

In the case of `CNC[C@H](O)c1cccc(O)c1` [phenylephrine], the “hypersensitivity to intravenous α1-adrenoreceptor agonist” value (NE deficient patients [2]; intravenous, two NE deficient patients) is reported as “four-fold hypersensitivity”.

With `COC(=O)[C@@H]1[C@H]2C[C@H]3c4[nH]c5ccccc5c4CCN3C[C@@H]2CC[C@@H]1O` [yohimbine] the “effect on blood pressure” value (NE deficient patients [2]; 10 mg po) was “no effect” and the “effect on plasma catecholamines” value (NE deficient patients [2]; 10 mg po) was “no effect”.

In the case of `CC(C)NCC(O)c1ccc(O)c(O)c1` (centres unmarked) [isoproterenol], the “hypersensitivity to the tachycardic effect of the β-adrenoreceptor agonist” value (NE deficient patients [2]; two NE deficient patients) is reported as “three-fold hypersensitivity”.
